Data taken from article PMC11233931, “Remodeling tumor‐associated macrophage for anti‐cancer effects by rational design of irreversible inhibition of mitogen‐activated protein kinase‐activated protein kinase 2” (MedComm, 2024).

What was measured:
Test in all cases: Eurofins kinase selectivity profile against 380 other human recombinant kinases (Table S2)
Format in all cases: biochemical
[1] = target: T1, 380 human recombinant protein kinases (Homo sapiens, UniProt P10398); settings: A-Raf(h), read-out: Inhibition rate
T1 construct: purchased Eurofins (Celle Lévescault)
T1 sequence (P10398 1-606): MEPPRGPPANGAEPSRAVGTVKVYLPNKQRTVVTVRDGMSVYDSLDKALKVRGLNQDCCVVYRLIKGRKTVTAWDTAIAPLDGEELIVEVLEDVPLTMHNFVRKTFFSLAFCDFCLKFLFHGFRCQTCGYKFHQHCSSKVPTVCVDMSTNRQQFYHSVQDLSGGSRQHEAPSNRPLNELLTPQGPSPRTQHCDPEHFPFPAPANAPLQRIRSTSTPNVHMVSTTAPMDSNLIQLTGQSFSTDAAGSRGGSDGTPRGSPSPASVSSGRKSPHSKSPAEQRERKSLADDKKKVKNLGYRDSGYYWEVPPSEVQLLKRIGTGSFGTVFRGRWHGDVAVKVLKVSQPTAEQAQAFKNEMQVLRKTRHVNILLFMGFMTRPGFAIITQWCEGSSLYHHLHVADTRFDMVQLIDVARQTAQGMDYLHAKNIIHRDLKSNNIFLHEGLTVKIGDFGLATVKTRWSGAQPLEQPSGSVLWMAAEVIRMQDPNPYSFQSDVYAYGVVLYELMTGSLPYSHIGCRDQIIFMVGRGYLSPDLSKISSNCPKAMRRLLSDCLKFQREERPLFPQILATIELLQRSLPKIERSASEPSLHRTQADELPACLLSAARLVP
Procedure, shortened: (§1)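 Values come from a contract kinase-profiling service that tested the compound at multiple concentrations across 380 recombinant human kinases, as an off-target check against the MK2 activity.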

[2] = target: T2, 380 human recombinant protein kinases (Homo sapiens, UniProt P0C1S8); settings: Wee1B(h), read-out: Inhibition rate (%)
T2 construct: purchased Eurofins (Celle Lévescault)
Procedure, shortened: as §1

[3] = target: T3, 380 human recombinant protein kinases (Homo sapiens, UniProt P04626); settings: ErbB2(h), read-out: Inhibition rate
T3 construct: purchased Eurofins (Celle Lévescault)
Procedure, shortened: as §1

[4] = target: T4, 380 human recombinant protein kinases (Homo sapiens, UniProt Q9H4B4); settings: Plk3(h), read-out: Inhibition rate
T4 construct: purchased Eurofins (Celle Lévescault)
Procedure, shortened: as §1

[5] = target: T5, 380 human recombinant protein kinases (Homo sapiens, UniProt Q02750); settings: MEK1(h), read-out: Inhibition rate
T5 construct: purchased Eurofins (Celle Lévescault)
Procedure, shortened: as §1

[6] = target: T6, 380 human recombinant protein kinases (Homo sapiens, UniProt P17612); settings: PKA(h), read-out: Inhibition rate
T6 construct: purchased Eurofins (Celle Lévescault)
Procedure, shortened: as §1

[7] = target: T7, 380 human recombinant protein kinases (Homo sapiens, UniProt Q13464); settings: ROCK-I(h), read-out: Inhibition rate
T7 construct: purchased Eurofins (Celle Lévescault)
Procedure, shortened: as §1

[8] = target: T8, 380 human recombinant protein kinases (Homo sapiens, UniProt Q8IWQ3); settings: BrSK2(h), read-out: Inhibition rate
T8 construct: purchased Eurofins (Celle Lévescault)
T8 sequence (Q8IWQ3 1-736): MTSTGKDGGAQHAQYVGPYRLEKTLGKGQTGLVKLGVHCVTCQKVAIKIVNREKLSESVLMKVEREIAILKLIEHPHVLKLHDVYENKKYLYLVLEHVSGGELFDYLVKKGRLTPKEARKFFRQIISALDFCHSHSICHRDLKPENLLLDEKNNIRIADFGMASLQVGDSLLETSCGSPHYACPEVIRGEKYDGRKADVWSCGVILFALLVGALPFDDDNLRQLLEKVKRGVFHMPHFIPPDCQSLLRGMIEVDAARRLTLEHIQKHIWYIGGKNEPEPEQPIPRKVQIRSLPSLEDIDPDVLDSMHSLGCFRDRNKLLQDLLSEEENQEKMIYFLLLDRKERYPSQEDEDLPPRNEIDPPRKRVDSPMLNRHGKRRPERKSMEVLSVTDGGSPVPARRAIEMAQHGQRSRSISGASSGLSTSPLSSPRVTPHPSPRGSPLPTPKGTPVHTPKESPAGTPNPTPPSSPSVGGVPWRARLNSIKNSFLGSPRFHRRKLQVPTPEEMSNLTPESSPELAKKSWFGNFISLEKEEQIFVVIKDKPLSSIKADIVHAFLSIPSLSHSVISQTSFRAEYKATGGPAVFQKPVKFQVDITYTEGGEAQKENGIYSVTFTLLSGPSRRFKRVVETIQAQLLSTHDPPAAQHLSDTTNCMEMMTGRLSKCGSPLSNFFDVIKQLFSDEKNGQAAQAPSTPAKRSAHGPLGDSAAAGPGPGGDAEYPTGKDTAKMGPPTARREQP
Procedure, shortened: as §1

T7 sequence (Q13464 whole entry): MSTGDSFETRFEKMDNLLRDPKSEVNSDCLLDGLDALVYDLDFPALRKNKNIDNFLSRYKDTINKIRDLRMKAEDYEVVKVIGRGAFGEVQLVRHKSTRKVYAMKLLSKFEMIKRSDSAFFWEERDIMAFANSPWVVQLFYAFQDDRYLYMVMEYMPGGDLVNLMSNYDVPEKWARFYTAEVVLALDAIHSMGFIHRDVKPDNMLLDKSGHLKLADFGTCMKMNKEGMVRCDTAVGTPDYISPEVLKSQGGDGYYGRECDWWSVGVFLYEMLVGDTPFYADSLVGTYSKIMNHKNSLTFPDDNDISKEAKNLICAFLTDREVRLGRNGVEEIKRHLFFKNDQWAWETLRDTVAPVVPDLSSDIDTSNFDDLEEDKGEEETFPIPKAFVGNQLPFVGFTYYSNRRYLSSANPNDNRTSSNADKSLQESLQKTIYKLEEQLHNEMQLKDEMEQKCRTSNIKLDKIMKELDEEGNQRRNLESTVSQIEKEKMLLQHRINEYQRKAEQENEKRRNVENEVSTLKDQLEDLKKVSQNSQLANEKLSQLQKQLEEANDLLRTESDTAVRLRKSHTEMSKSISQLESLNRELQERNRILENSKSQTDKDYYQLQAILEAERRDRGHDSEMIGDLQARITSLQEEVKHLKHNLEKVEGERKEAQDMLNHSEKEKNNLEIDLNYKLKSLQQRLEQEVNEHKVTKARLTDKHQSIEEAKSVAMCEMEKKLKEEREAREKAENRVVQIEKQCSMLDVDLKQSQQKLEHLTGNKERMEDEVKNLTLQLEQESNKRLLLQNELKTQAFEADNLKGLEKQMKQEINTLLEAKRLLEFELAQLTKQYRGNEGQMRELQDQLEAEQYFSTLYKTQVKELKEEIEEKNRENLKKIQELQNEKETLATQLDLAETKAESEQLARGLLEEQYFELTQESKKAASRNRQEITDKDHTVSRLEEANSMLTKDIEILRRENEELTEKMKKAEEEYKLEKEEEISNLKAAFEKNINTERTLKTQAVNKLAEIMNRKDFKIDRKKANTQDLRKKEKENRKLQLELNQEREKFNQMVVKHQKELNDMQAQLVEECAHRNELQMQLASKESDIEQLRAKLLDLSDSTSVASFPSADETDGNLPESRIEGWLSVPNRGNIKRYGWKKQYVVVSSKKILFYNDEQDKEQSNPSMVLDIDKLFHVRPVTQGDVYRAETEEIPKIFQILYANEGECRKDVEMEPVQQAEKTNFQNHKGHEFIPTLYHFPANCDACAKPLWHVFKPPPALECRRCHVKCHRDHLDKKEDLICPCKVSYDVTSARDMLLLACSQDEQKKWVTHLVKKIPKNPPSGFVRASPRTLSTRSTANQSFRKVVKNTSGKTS
T5 sequence (Q02750 whole entry): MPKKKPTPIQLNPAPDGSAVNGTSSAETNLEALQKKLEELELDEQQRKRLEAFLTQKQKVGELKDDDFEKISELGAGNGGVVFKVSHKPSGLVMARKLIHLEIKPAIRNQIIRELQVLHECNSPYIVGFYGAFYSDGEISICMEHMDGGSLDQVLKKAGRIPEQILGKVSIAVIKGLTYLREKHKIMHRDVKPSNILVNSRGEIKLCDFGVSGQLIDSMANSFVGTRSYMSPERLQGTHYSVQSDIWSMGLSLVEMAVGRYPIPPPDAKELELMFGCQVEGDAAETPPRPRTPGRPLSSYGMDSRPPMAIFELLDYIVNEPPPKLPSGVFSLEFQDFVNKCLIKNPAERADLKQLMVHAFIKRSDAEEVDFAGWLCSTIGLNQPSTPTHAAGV
T4 sequence (Q9H4B4 whole entry): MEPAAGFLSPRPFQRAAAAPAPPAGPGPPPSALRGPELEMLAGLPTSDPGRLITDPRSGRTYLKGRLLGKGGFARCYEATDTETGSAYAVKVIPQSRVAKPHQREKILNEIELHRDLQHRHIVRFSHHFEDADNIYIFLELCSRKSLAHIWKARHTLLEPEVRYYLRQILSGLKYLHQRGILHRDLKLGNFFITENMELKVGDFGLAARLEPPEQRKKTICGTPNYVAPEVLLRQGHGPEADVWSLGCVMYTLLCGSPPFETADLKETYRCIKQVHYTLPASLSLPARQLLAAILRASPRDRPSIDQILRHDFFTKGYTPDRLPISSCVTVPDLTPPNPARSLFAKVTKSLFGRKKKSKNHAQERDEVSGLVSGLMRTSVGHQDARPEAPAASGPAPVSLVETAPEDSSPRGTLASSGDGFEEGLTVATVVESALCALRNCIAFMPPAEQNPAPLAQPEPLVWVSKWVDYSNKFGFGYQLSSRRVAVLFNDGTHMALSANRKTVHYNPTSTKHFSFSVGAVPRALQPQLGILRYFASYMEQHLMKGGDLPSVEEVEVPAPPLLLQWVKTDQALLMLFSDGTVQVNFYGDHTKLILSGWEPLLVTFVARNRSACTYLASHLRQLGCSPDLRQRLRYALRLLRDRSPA
T2 sequence (P0C1S8 whole entry): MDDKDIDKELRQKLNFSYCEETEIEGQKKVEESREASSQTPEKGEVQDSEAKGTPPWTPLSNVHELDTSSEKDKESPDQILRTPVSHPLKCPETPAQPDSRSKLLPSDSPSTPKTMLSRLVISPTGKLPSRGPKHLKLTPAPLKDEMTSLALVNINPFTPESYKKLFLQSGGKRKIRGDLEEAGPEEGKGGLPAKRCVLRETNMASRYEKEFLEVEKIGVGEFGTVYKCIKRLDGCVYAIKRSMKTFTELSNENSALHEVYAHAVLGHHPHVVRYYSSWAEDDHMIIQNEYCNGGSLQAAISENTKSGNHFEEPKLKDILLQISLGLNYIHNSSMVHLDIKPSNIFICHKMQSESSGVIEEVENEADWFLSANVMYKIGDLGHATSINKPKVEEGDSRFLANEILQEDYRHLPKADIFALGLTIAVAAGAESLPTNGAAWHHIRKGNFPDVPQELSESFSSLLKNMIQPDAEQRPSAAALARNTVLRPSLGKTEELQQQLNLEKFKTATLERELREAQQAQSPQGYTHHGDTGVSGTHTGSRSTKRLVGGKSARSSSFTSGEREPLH
T3 sequence (P04626 23-1255): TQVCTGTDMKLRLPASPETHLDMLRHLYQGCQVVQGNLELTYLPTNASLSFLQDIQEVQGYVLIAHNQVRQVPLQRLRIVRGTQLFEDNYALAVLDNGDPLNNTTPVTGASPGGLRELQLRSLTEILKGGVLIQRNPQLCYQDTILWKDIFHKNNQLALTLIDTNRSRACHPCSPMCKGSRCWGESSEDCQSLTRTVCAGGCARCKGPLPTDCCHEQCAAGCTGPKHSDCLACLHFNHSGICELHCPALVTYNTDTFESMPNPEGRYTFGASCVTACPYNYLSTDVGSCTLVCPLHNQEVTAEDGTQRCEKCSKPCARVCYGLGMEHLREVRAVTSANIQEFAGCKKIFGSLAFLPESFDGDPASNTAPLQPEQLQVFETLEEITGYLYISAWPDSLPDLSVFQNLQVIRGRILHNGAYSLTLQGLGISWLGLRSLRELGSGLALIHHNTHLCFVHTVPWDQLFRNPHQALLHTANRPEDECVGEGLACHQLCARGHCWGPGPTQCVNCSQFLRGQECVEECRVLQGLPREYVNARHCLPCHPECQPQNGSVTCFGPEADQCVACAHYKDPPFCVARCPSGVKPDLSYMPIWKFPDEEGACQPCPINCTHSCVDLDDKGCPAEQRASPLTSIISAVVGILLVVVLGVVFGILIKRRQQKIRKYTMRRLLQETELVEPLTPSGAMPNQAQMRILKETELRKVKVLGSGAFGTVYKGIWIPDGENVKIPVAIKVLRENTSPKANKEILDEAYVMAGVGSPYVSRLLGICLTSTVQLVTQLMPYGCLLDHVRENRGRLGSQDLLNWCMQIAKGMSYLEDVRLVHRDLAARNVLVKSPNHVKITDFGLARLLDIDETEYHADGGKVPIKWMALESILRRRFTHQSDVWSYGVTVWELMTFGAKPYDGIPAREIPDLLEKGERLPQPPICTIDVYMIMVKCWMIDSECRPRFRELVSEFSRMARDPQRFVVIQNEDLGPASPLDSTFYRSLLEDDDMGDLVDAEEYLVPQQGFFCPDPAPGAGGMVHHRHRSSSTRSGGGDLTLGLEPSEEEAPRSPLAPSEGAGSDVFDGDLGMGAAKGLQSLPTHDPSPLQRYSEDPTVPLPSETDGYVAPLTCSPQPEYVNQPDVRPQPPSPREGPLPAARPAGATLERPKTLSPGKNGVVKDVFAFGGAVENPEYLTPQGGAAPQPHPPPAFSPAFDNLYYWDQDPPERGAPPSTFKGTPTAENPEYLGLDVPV

C=CC(=O)Nc1cc(-c2cc(-c3cc4c([nH]3)CCNC4=O)ccn2)ccc1OC(F)(F)F [compound 11]
inhibition at 0.01 µM ([1]; 10 nM): 1%
inhibition at 0.1 µM ([1]; 100 nM): 15%
inhibition at 1 µM ([1]; 1000 nM): 18%
inhibition at 0.01 µM ([2]; 10 nM): -2%
inhibition at 0.1 µM ([2]; 100 nM): -4%
inhibition at 1 µM ([2]; 1000 nM): 3%
inhibition at 0.01 µM ([3]; 10 nM): 10%
inhibition at 0.1 µM ([3]; 100 nM): 5%
inhibition at 1 µM ([3]; 1000 nM): 1%
inhibition at 0.01 µM ([4]; 10 nM): 10%
inhibition at 0.1 µM ([4]; 100 nM): 6%
inhibition at 1 µM ([4]; 1000 nM): 15%
inhibition at 0.01 µM ([5]; 10 nM): -12%
inhibition at 0.1 µM ([5]; 100 nM): -4%
inhibition at 1 µM ([5]; 1000 nM): -8%
inhibition at 0.01 µM ([6]; 10 nM): -7%
inhibition at 0.1 µM ([6]; 100 nM): -7%
inhibition at 1 µM ([6]; 1000 nM): -6%
inhibition at 0.01 µM ([7]; 10 nM): 2%
inhibition at 0.1 µM ([7]; 100 nM): -1%
inhibition at 1 µM ([7]; 1000 nM): -7%
inhibition at 0.01 µM ([8]; 10 nM): -2%
inhibition at 0.1 µM ([8]; 100 nM): 6%
inhibition at 1 µM ([8]; 1000 nM): 26%
